# Values of other authors in patent US20220265689A1, “HIV PRE-EXPOSURE PROPHYLAXIS” (THE UNITED STATES OF AMERICA ,AS REPRESENTED BY THE …, priority 2019, published 2022).
# Test system: HIV-1
# Conditions: HIV-1 T cells, activated PBMCs, macrophages
compound,measurement,value
"CC(C)OC(=O)[C@H](C)N[P@](=O)(CO[C@H](C)Cn1cnc2c(N)ncnc21)Oc1ccccc1 [TAF, tenofovir alafenamide]",enhanced anti-HIV activity relative to tenofovir,500- to 10300 fold
